Source: paper PMC8497620, “Structure and inhibition of Cryptococcus neoformans sterylglucosidase to develop antifungal agents” (Nature Communications, 2021)
Several values for one entry are separate records, joined by “and”; a condition that tells them apart may be missing. Identical values can stand only once. Entries after “also recorded” stand apart in the source; their conditions may differ. Like-named read-outs stand apart in the source and are kept apart here.

What was measured:
[1] = biological target: T1, Cerezyme (human glucosylceramidase) (Homo sapiens, UniProt P04062, R534H); assay: Effect on Cerezyme activity with res-glp substrate; assay type: biochemical; conditions: substrate resorufin 3β-D-glucopyranoside (100 µM)
T1 construct: purchased Genzyme Corporation, Cambridge, MA, USA
T1 sequence (P04062 40-536 R534H): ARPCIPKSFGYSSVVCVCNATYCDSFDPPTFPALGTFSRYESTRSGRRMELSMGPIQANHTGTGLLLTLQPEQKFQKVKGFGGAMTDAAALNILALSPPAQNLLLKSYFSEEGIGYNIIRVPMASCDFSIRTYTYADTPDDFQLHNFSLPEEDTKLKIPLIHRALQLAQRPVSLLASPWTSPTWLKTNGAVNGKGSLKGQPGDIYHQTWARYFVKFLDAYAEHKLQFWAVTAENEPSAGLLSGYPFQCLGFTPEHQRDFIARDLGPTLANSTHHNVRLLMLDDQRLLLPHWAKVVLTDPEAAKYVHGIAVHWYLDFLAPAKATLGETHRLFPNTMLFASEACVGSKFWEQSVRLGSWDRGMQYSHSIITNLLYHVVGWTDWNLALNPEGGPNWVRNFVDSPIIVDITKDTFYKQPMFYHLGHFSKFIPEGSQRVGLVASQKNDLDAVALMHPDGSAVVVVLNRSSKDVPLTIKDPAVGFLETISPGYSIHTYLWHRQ
Method: Resorufin-3β-D-glucopyranoside (res-glp, Sigma-Aldrich) enzyme kinetic assays were performed according to methods described by Urban et al.[16] with modifications. Reaction buffer contained 50 mM citric acid, 176 mM K2HPO4, pH 6, 0.01% Tween-20, and 10 mM sodium taurocholate. The reactions were carried out in black 96-well plates using 20 ng of enzyme with 100 μM res-glp substrate. In all, 10 μL/well of res-glp substrate was added to each well and the reaction was initiated by adding 20 μL enzyme (20 ng). After incubation at 37 °C for 30–40 min, the fluorescence was read at an excitation of 570 (±10) nm and an emission of 610 (±10) nm on a VersaMax™ Microplate Reader from Molecular Devices. A standard curve was prepared with serial dilutions of the free fluorophore, resorufin, in the same volume of assay buffer. All reactions were linear with respect to time and protein concentration and the pH, temperature, and dimethyl sulfoxide (DMSO) optimal tolerance was verified.
The Z′-factor was used for the assessment of the efficiency of the HTS assay for each individual plate. Values greater than 0.5 has been considered as an indicator of an excellent screening assay quality. […] The top three hits identified were re-tested in serial dilution against Sgl1 and cerezyme.

C. neoformans Sgl1 = C. neoformans Sgl1 (Cryptococcus neoformans var. grubii, UniProt J9W473); assay: Sgl1 inhibition with native substrate erg-glc; assay type: biochemical; conditions: substrate ergosterol 3β-D-glucoside (1 mol%); for inhibition at 0.1 µM: read-out: % Sgl1 Inhibition, 0.1 µM compound; for inhibition at 1 µM: read-out: % Sgl1 Inhibition, 1 µM compound; for inhibition at 10 µM: read-out: % Sgl1 Inhibition, 10 µM compound; for inhibition at 100 µM: read-out: % Sgl1 Inhibition, 100 µM compound
Method: To validate the selective inhibition of Sgl1 by these compounds, we first tested their ability to inhibit hydrolysis of erg-glc in vitro.
A 50 μL volume of Cn Sgl1 wild type and 50 μL of mixed micelles of lipid and Triton X-100 in 50 mM Bis-Tris buffer with 150 mM NaCl, 5 mM βME, and 5 mM DTT were mixed and incubated at 37 °C for 10 min (erg-glc, Avanti Polar Lipids) and 1 h (C6-NBD-glcCer, Matreya). For the substrate erg-glc the amount of protein was 5 ng. 150 ng protein was used for reactions with C6-NBD-GlcCer. After the incubation period, each reaction was quenched with a 2:1 chloroform:methanol solution and the organic phase was collected and dried. Then, the lipid content was resuspended in 50 μL methanol and applied to HPLC (Agilent Technologies). Total erg-glc and ergosterol was detected using absorbance at 282 nm on a C-8 column with a flow rate of 0.5 ml/min in methanol/water 90:10 ratio buffered with 1 mM ammonium formate and 0.2% formic acid. A 85:15 ratio of the same eluent was used for C6-NBD-GlcCer and C6-NBD-ceramide monitoring the fluorescence at 470/530 nm excitation/emission. The total area of product was normalized by the total area of its respective substrate.

C. neoformans H99 [2] = assay: Growth inhibition assay (YNB, 1% glucose, sealed plates, limited oxygen); assay type: cell-based, Cryptococcus neoformans; conditions: 37 °C, 72 h
Method: Five microliters containing 100 cells of C. neoformans H99 were inoculated in solid YNB media without amino acids plus 1% w/v glucose. Plates were then sealed with clear polyolefin sealing tape (ThermoFisher) and incubated at 37 °C for 72 h. Hits 1, 9, and 15 were added to the media at concentrations of 10 and 50 µM. H99, Δsgl1, and Δsgl1 + SGL1 strains were used as controls without compounds.

C. neoformans H99 [3] = assay type: in vivo, Cryptococcus neoformans; conditions: Hit 1 intranasally, fluconazole intraperitoneally; for brain dissemination / CFU recovered from the brain: 14 days; for Lung (CFU/mL): 10 mg/kg/day
Method: For animal studies, 4-week-old CBA/J (Envigo) female mice were used. Mouse experiments were performed in full compliance with a protocol approved by Stony Brook University (IACUC number 341588) and in compliance with the United States Animal Welfare Act (Public Law 98–198). The experiments were carried out in facilities accredited by the Association for Assessment and Accreditation of Laboratory Animal Care. Mice were divided into sets of 12 mice for each treatment or control group (4 animals per cage) kept in an animal room (temperature, 22–24 °C; relative humidity, 35–45%) with artificial 12–12 h dark/light cycle. For the experiment with intraperitoneal (i.p.) treatment, mice were infected intranasally with 10 µL of a suspension containing 1 × 10^6 C. neoformans H99 cells and subsequently treated through i.p. injection with 10 mg/kg/day of hit 1 in a final volume of 100 µL of vehicle containing 10% PEG 200 in PBS. The untreated animals received 100 µL of vehicle. For the experiment with intranasal (i.n.) treatment, mice were infected with 1 × 10^5 C. neoformans H99 cells and received i.n. treatment with hit 1 in a final volume of 10 µL. Another group received treatment with 10 mg/kg/day of fluconazole i.p. and a third group received the combined treatment of hit1 by i.n. and fluconazole by i.p. Animals receiving only vehicle i.n. were used as a control group. In both experiments, three mice of each group were euthanized at day 3, 6, 9, and 14 post infection for CFU recovery from lungs and CFU recovery from brain on day 14.

[4] = day 14 post infection, 10 mg/kg/day each

C. neoformans Sgl1, sequence (J9W473 entry or part of it): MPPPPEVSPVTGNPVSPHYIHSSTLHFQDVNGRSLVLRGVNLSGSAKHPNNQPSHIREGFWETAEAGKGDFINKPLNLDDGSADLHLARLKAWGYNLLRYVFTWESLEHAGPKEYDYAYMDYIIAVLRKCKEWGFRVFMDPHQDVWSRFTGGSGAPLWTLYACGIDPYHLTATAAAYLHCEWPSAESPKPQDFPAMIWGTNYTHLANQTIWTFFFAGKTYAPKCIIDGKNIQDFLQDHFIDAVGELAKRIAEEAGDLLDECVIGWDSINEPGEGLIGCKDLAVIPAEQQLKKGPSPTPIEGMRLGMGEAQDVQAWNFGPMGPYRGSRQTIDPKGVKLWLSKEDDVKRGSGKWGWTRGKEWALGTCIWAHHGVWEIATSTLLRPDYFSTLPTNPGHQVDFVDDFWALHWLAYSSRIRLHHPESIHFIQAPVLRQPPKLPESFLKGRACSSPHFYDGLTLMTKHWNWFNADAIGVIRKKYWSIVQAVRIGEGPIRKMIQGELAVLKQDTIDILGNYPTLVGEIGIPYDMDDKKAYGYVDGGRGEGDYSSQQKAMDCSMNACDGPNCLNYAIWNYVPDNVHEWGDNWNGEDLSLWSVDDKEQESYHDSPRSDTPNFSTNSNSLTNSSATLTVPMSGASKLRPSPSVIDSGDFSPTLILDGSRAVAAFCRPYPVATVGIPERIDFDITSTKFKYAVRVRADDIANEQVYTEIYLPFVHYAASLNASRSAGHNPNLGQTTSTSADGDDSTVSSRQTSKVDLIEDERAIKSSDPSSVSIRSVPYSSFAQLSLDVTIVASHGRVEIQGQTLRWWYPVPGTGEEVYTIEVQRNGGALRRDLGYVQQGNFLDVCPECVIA

Row | Structure (SMILES) | inhibition at 12.5427 µM ([1]; 12.5427 µM compound) [%] | % Cerezyme Inhibition ([1]; 25.0854 µM compound) [%] | inhibition at 25.0854 µM ([1]; 25.0854 µM compound) [%] | % Cerezyme Inhibition ([1]; 50.1708 µM compound) [%] | inhibition at 50.1708 µM ([1]; 50.1708 µM compound) [%] | % Cerezyme Inhibition ([1]; 100.342 µM compound) [%] | inhibition at 100.342 µM ([1]; 100.342 µM compound) [%] | % Cerezyme Inhibition ([1]; 200.683 µM compound) [%] | inhibition at 200.683 µM ([1]; 200.683 µM compound) [%] | % Cerezyme Inhibition ([1]; 401.367 µM compound) [%] | inhibition at 401.367 µM ([1]; 401.367 µM compound) [%] | % Cerezyme Inhibition ([1]; 800 µM compound) [%] | inhibition at 800 µM ([1]; 800 µM compound) [%] | % Sgl1 Inhibition (C. neoformans Sgl1; 0.1 µM compound, 0.1 µM) | % Sgl1 Inhibition (C. neoformans Sgl1; 1 µM compound, 1 µM) [%] | % Sgl1 Inhibition (C. neoformans Sgl1; 10 µM compound, 10 µM) [%] | inhibition at 0.1 µM (C. neoformans Sgl1) [%] | inhibition at 10 µM (C. neoformans Sgl1) [%] | inhibition at 100 µM (C. neoformans Sgl1) [%] | growth of wild-type C. neoformans (C. neoformans H99 [2]; 50 µM) | other results
1 | CC(C)c1nc(N[C@@H]2C[C@@H](CO)N(C)C2)c2cnn(C)c2n1 [Hit 15] | 0 | 1.771 | 1.74 | 3.823 | 2.11 | 6.414 | 5.46 | 6.666 | 9.37 | 12.8892 | 13.2 | 12.1079 | 16.6 | 19.6403% | 70.0789 | 95.289 | 26.7 | 95.2 | 100 | inhibit growth similarly to C. neoformans Δsgl1; also recorded: lack of growth | inhibition at 1 µM (C. neoformans Sgl1): 73.4%; growth of wild-type C. neoformans (C. neoformans H99 [2]; 10 µM): abrogated C. neoformans growth
2 | COc1cccc(-c2ncc(CN3CCC(O)(CO)CC3)s2)c1 [Hit 1] |  | 6.583 | 7.34 | 7.795 | 8.81 |  | 9.86 | 9.338 | 9.63 |  | 9.86 | 12.9786 | 10.5 | 11.4412% and 5.382% |  | 46.34 |  | 40.5 | 84.8 | inhibit growth similarly to C. neoformans Δsgl1; also recorded: lack of growth | % Cerezyme Inhibition ([1]; 12.5427 µM compound): 4.937% and 1.065%; % Sgl1 Inhibition (C. neoformans Sgl1; 100 µM compound, 100 µM): 79.9522%; brain dissemination / CFU recovered from the brain (C. neoformans H99 [3]): no CFU recovered from the brain; brain dissemination / CFU recovered from the brain (C. neoformans H99 [3]; listed as hit 1): no brain dissemination of yeast cells; Lung (CFU/mL) (C. neoformans H99 [3]; day 9 post infection, 10 mg/kg/day each): 950000 CFU/mL and 1400000 CFU/mL and 780000 CFU/mL; Brain (CFU/mL) (C. neoformans H99 [3]; [4]): 0 CFU/mL; Lung (CFU/mL) (C. neoformans H99 [3]; [4]): 3880000 CFU/mL and 3700000 CFU/mL and 3100000 CFU/mL
3 | CN1C[C@@H](NC(=O)Cc2ccc3c(c2)NC(=O)CO3)C[C@@H]1CO [Hit 9] | 1.03 | 2.143 | 2.64 | 6.259 | 5.68 | 7.029 | 6.87 | 9.927 | 9.82 | 12.2165 | 14.1 |  | 16.7 | 58.2711% | 93.4351 | 98.2082 | 52.2 | 97.6 | 98.1 | inhibit growth similarly to C. neoformans Δsgl1; also recorded: lack of growth | % Cerezyme Inhibition ([1]; 12.5427 µM compound): 0.6044%; % Sgl1 Inhibition (C. neoformans Sgl1; 100 µM compound, 100 µM): 100%; inhibition at 1 µM (C. neoformans Sgl1): 92.9%; growth of wild-type C. neoformans (C. neoformans H99 [2]; 10 µM): abrogated C. neoformans growth
